Experimental data taken from patent US20050282755A1, “Compositions having antimicrobial activity and uses thereof” (priority 2004, published 2005).
Values after ≈ are worked out from the molar mass of the structure shown. Non-standard residues stand in square brackets, D forms with d. Residues, ends and D or L forms follow the SMILES beside them. *: point of attachment. Lauroyl = CCCCCCCCCCCC(=O)*

Legend:
Assay type in all cases: cell-based
[1] = tested on: Staphylococcus aureus ATCC 29213; experiment: MIC, NCCLS M7-A6 broth microdilution, cation-adjusted Mueller Hinton broth (Table 9, no superscript); conditions: ATCC 29213
Outline: (§1)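 Broth microdilution in cation-adjusted Mueller Hinton broth, log-phase inoculum giving 5×10^5 to 1×10^6 CFU/milliliter per well. Overnight incubation at 37° C. MIC taken as lowest peptide concentration with no visible turbidity versus a no-peptide control.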

[2] = tested on: Escherichia coli ATCC 25922; experiment: MIC, NCCLS M7-A6 broth microdilution (Table 9, no superscript); conditions: ATCC 25922
Outline: as §1

[3] = tested on: Pseudomonas aeruginosa ATCC 27853; experiment: as above; conditions: ATCC 27853
Outline: as §1

[4] = tested on: Salmonella dublin (Lane); experiment: as above
Outline: as §1

[5] = tested on: Staphylococcus epidermidis ATCC 12228; experiment: as above; conditions: ATCC 12228
Outline: as §1

[6] = tested on: Propionibacterium acnes ATCC 6919; experiment: MIC, agar dilution method NCCLS M11-A6, Brucella agar, anaerobic (Table 9, superscript c); conditions: ATCC 6919
Method: A bacterial suspension was prepared to allow for a final inoculum on the plate of 1.5×10^8 CFU/milliliter. After the suspension absorbed into the agar surface, the plates were incubated for 48-96 hours at 37° C. in a GasPak anaerobic chamber. The lowest concentration of peptide that contained no colony growth on the agar plate was determined as the MIC. MIC values that utilized this method of MIC determination are indicated in Table 9 with a superscript letter “c.”

SMILES | MIC S. aureus [1] [µg/mL] | MIC E. coli [2] [µg/mL] | MIC P. aeruginosa [3] [µg/mL] | MIC S. dublin [4] [µg/mL] | MIC S. epidermidis [5] [µg/mL] | MIC P. acnes [6] [c ug/mL]
CCCCCCCCCCCC(=O)N[C@H](CCCNC(=N)N)C(=O)N[C@H](CO)C(=O)N[C@H](CCCNC(=N)N)C(=O)N[C@H](Cc1c[nH]c2ccccc12)C(=O)N[C@H](CCCNC(=N)N)C(=O)N[C@H](CC(=O)O)C(=O)N[C@@H](C(=O)N[C@H](C)C(=O)N[C@H](CCCNC(=N)N)C(=O)N[C@H](CC(N)=O)C(=O)N[C@H](Cc1ccccc1)C(=O)N[C@H](CC(C)C)C(=O)N[C@H](CCCNC(=N)N)C(N)=O)C(C)C [Peptide 210, Lauryl-rsrwrdvarnflr-NH2] (Lauroyl-[dR][dS][dR][dW][dR][dD][dV][dA][dR][dN][dF][dL][dR]-NH2) | 4 (≈ 2.09 µM) | 8 (≈ 4.18 µM) | 16 (≈ 8.36 µM) | 4 (≈ 2.09 µM) | 2 (≈ 1.05 µM) | 8
CCCCCCCCCCCC(=O)N[C@H](CCCNC(=N)N)C(=O)N[C@H](CO)C(=O)N[C@H](CCCNC(=N)N)C(=O)N[C@H](Cc1c[nH]c2ccccc12)C(=O)N[C@H](CCCNC(=N)N)C(=O)N[C@H](CC(=O)O)C(=O)N[C@@H](C(=O)N[C@H](C)C(=O)N[C@H](CCCNC(=N)N)C(=O)N[C@H](CC(N)=O)C(=O)N[C@H](Cc1ccccc1)C(=O)N[C@H](CC(C)C)C(N)=O)C(C)C [Peptide 211, Lauryl-rsrwrdvarnfl-NH2] (Lauroyl-[dR][dS][dR][dW][dR][dD][dV][dA][dR][dN][dF][dL]-NH2) | 4 (≈ 2.28 µM) | 8 (≈ 4.55 µM) | 64 (≈ 36.4 µM) | 4 (≈ 2.28 µM) | 2 (≈ 1.14 µM) | 4
CCCCCCCCCCCC(=O)N[C@H](CO)C(=O)N[C@H](CCCNC(=N)N)C(=O)N[C@H](Cc1c[nH]c2ccccc12)C(=O)N[C@H](CCCNC(=N)N)C(=O)N[C@H](CC(=O)O)C(=O)N[C@@H](C(=O)N[C@H](C)C(=O)N[C@H](CCCNC(=N)N)C(=O)N[C@H](CC(N)=O)C(=O)N[C@H](Cc1ccccc1)C(=O)N[C@H](CC(C)C)C(=O)N[C@H](CCCNC(=N)N)C(N)=O)C(C)C [Peptide 212, Lauryl-srwrdvarnflr-NH2] (Lauroyl-[dS][dR][dW][dR][dD][dV][dA][dR][dN][dF][dL][dR]-NH2) | 4 (≈ 2.28 µM) | 8 (≈ 4.55 µM) | 64 (≈ 36.4 µM) | 4 (≈ 2.28 µM) | 2 (≈ 1.14 µM) | 2
CCCCCCCCCCCC(=O)N[C@H](CCCNC(=N)N)C(=O)N[C@H](CCCCN)C(=O)N[C@H](CCCNC(=N)N)C(=O)N[C@H](Cc1c[nH]c2ccccc12)C(=O)N[C@H](CCCNC(=N)N)C(=O)N[C@H](CC(=O)O)C(=O)N[C@@H](C(=O)N[C@H](C)C(=O)N[C@H](CCCNC(=N)N)C(=O)N[C@H](CC(N)=O)C(=O)N[C@H](Cc1ccccc1)C(=O)N[C@H](CC(C)C)C(=O)N[C@H](CCCNC(=N)N)C(N)=O)C(C)C [Peptide 219, Lauryl-rkrwrdvarnflr-NH2] (Lauroyl-[dR][dK][dR][dW][dR][dD][dV][dA][dR][dN][dF][dL][dR]-NH2) | 4 (≈ 2.05 µM) | 8 (≈ 4.09 µM) | 4 (≈ 2.05 µM) | 4 (≈ 2.05 µM) | 2 (≈ 1.02 µM) | 16
CCCCCCCCCCCC(=O)N[C@H](CCCNC(=N)N)C(=O)N[C@H](CCCCN)C(=O)N[C@H](CCCNC(=N)N)C(=O)N[C@H](Cc1c[nH]c2ccccc12)C(=O)N[C@H](CCCNC(=N)N)C(=O)N[C@H](CCC(=O)O)C(=O)N[C@@H](C(=O)N[C@H](C)C(=O)N[C@H](CCCNC(=N)N)C(=O)N[C@H](CC(N)=O)C(=O)N[C@H](Cc1ccccc1)C(=O)N[C@H](CC(C)C)C(=O)N[C@H](CCCNC(=N)N)C(N)=O)C(C)C [Peptide 220, Lauryl-rkrwrevarnflr-NH2] (Lauroyl-[dR][dK][dR][dW][dR][dE][dV][dA][dR][dN][dF][dL][dR]-NH2) | 2 (≈ 1.02 µM) | 4 (≈ 2.03 µM) | 8 (≈ 4.06 µM) | 2 (≈ 1.02 µM) | 1 (≈ 0.508 µM) | 16
CCCCCCCCCCCC(=O)N[C@H](CCCNC(=N)N)C(=O)N[C@H](C)C(=O)N[C@H](CCCNC(=N)N)C(=O)N[C@H](Cc1c[nH]c2ccccc12)C(=O)N[C@H](CCCNC(=N)N)C(=O)N[C@H](CC(=O)O)C(=O)N[C@@H](C(=O)N[C@H](C)C(=O)N[C@H](CCCNC(=N)N)C(=O)N[C@H](CC(N)=O)C(=O)N[C@H](Cc1ccccc1)C(=O)N[C@H](CC(C)C)C(=O)N[C@H](CCCNC(=N)N)C(N)=O)C(C)C [Peptide 224, Lauryl-rarwrdvarnflr-NH2] (Lauroyl-[dR][dA][dR][dW][dR][dD][dV][dA][dR][dN][dF][dL][dR]-NH2) | 2 (≈ 1.05 µM) | 8 (≈ 4.22 µM) | 16 (≈ 8.43 µM) | 4 (≈ 2.11 µM) | 2 (≈ 1.05 µM) | 32
CCCCCCCCCCCC(=O)N[C@H](CCCNC(=N)N)C(=O)N[C@H](CO)C(=O)N[C@H](CCCNC(=N)N)C(=O)N[C@H](Cc1c[nH]c2ccccc12)C(=O)N[C@H](CCCNC(=N)N)C(=O)N[C@H](C)C(=O)N[C@@H](C(=O)N[C@H](C)C(=O)N[C@H](CCCNC(=N)N)C(=O)N[C@H](CC(N)=O)C(=O)N[C@H](Cc1ccccc1)C(=O)N[C@H](CC(C)C)C(=O)N[C@H](CCCNC(=N)N)C(N)=O)C(C)C [Peptide 225, Lauryl-rsrwravarnflr-NH2] (Lauroyl-[dR][dS][dR][dW][dR][dA][dV][dA][dR][dN][dF][dL][dR]-NH2) | 1 (≈ 0.535 µM) | 16 (≈ 8.56 µM) | 16 (≈ 8.56 µM) | 1 (≈ 0.535 µM) | 2 (≈ 1.07 µM) | 8
CCCCCCCCCCCC(=O)N[C@H](CCCNC(=N)N)C(=O)N[C@H](CO)C(=O)N[C@H](CCCNC(=N)N)C(=O)N[C@H](Cc1c[nH]c2ccccc12)C(=O)N[C@H](CCCNC(=N)N)C(=O)N[C@H](CC(=O)O)C(=O)N[C@@H](C(=O)N[C@H](C)C(=O)N[C@H](CCCNC(=N)N)C(=O)N[C@H](C)C(=O)N[C@H](Cc1ccccc1)C(=O)N[C@H](CC(C)C)C(=O)N[C@H](CCCNC(=N)N)C(N)=O)C(C)C [Peptide 226, Lauryl-rsrwrdvaraflr-NH2] (Lauroyl-[dR][dS][dR][dW][dR][dD][dV][dA][dR][dA][dF][dL][dR]-NH2) | 8 (≈ 4.28 µM) | 16 (≈ 8.55 µM) | >64 | 16 (≈ 8.55 µM) | 4 (≈ 2.14 µM) | 32
CCCCCCCCCCCC(=O)N[C@H](CCCNC(=N)N)C(=O)N[C@H](CC(C)C)C(=O)N[C@H](CCCNC(=N)N)C(=O)N[C@H](Cc1c[nH]c2ccccc12)C(=O)N[C@H](CCCNC(=N)N)C(=O)N[C@H](CCC(=O)O)C(=O)N[C@@H](C(=O)N[C@H](C)C(=O)N[C@H](CCCNC(=N)N)C(=O)N[C@H](CC(C)C)C(=O)N[C@H](Cc1ccccc1)C(=O)N[C@H](CC(C)C)C(=O)N[C@H](CCCNC(=N)N)C(N)=O)C(C)C [Peptide 227, Lauryl-rlrwrevarlflr-NH2] (Lauroyl-[dR][dL][dR][dW][dR][dE][dV][dA][dR][dL][dF][dL][dR]-NH2) | 32 (≈ 16.4 µM) | 64 (≈ 32.8 µM) | >64 | 32 (≈ 16.4 µM) | 32 (≈ 16.4 µM) | >64
CCCCCCCCCCCC(=O)N[C@H](CCCNC(=N)N)C(=O)N[C@H](CO)C(=O)N[C@H](CCCNC(=N)N)C(=O)N[C@H](Cc1c[nH]c2ccccc12)C(=O)N[C@H](CCCNC(=N)N)C(=O)N[C@H](CC(=O)O)C(=O)N[C@H](CO)C(=O)N[C@H](C)C(=O)N[C@H](CCCNC(=N)N)C(=O)N[C@H](CC(N)=O)C(=O)N[C@H](Cc1ccccc1)C(=O)N[C@H](CCSC)C(=O)N[C@H](CCCNC(=N)N)C(N)=O [Peptide 233, Lauryl-rsrwrdsarnfmr-NH2] (Lauroyl-[dR][dS][dR][dW][dR][dD][dS][dA][dR][dN][dF][dM][dR]-NH2) | 16 (≈ 8.34 µM) | 16 (≈ 8.34 µM) | 64 (≈ 33.3 µM) | >64 | 16 (≈ 8.34 µM) | 16
